Experimental data: ChEMBL document CHEMBL3797082, “A multicomponent pharmacophore fragment-decoration approach to identify selective LRRK2-targeting probes” (Medchemcomm, 2016)
Active and inactive are the calls of the source. The rule behind the calls is not given here.

Assays:
[1] = tested on: Leucine-rich repeat serine/threonine-protein kinase 2 (Homo sapiens), Q5S007 [G2019S]; assay: Inhibition of human recombinant GST-tagged LRRK2 G2019S mutant (970 residues) expressed in baculovirus expression system using LRRKtide as substrate at 100 uM incubated for 10 mins by scintillation counting method in presence of [gamma33P]ATP
[2] = target: Leucine-rich repeat serine/threonine-protein kinase 2 (Homo sapiens) (UniProt Q5S007); assay: Inhibition of human recombinant N-terminal GST-tagged LRRK2 (968 residues) expressed in baculovirus infected sf9 cells using LRRKtide as substrate at 100 uM incubated for 10 mins by scintillation counting method in presence of [gamma33P]ATP
[3] = target: Serine/threonine-protein kinase pim-1 (Homo sapiens) (UniProt P11309); assay: Inhibition of full length human recombinant N-terminal GST-tagged PIM1 expressed in Escherichia coli using S6 Kinase/Rsk2 peptide2 as substrate at 100 uM incubated for 10 mins by scintillation counting method relative to control
Chain of Serine/threonine-protein kinase pim-1 (Homo sapiens) (P11309 whole entry, looked up): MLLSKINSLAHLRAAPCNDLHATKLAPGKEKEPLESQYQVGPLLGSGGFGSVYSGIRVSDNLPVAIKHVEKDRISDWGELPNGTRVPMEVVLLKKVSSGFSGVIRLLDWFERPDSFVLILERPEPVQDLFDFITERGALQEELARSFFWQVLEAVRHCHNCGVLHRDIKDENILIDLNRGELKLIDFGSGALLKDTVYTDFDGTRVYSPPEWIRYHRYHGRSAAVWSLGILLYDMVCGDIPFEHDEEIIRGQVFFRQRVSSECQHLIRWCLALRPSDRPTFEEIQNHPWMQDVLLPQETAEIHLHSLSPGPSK

[4] = target: CDK9/Cyclin K (Homo sapiens) (UniProt P50750+O75909); assay: Inhibition of full length human recombinant N-terminal GST-tagged CDK9/Cyclin K expressed in baculovirus infected sf9 cells using CDKtide as substrate at 100 uM incubated for 10 mins by scintillation counting method relative to control
[5] = Selectivity ratio of ID50 for human recombinant N-terminal GST-tagged LRRK2 (968 residues) expressed in baculovirus infected sf9 cells to ID50 for human recombinant GST-tagged LRRK2 G2019S mutant (970 residues) expressed in baculovirus expression system
[6] = target: Cyclin-dependent kinase 4/cyclin D1 (Homo sapiens) (UniProt P11802+P24385); assay: Inhibition of full length human recombinant N-terminal GST-tagged CDK4/Cyclin D1 expressed in baculovirus infected sf9 cells using RB-CTF as substrate at 100 uM incubated for 10 mins by scintillation counting method relative to control
[7] = target: Proto-oncogene tyrosine-protein kinase Src (Homo sapiens) (UniProt P12931); assay: Inhibition of full length human recombinant N-terminal His6-tagged SRC expressed in baculovirus infected sf21 cells using KVEKIGEGTYGVVYK as substrate at 100 uM incubated for 10 mins by scintillation counting method relative to control
Chain of Proto-oncogene tyrosine-protein kinase Src (Homo sapiens) (P12931 2-536 limits assumed): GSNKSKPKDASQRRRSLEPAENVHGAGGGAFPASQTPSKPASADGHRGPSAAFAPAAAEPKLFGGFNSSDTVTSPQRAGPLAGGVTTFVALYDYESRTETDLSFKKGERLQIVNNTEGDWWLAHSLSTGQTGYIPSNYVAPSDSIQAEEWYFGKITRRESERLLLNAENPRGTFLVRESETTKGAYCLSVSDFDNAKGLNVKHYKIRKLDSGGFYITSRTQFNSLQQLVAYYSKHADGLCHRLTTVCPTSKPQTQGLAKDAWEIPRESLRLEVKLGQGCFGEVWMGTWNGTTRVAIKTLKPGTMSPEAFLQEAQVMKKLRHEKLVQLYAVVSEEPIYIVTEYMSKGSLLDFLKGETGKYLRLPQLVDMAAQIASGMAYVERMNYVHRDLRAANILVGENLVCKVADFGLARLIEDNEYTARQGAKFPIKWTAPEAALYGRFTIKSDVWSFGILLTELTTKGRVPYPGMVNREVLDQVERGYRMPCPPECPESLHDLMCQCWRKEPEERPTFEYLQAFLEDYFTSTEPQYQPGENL

[8] = target: Tyrosine-protein kinase ABL1 (Homo sapiens) (UniProt P00519); assay: Inhibition of human recombinant N-terminal His-tagged ABL (27 residues) expressed in baculovirus infected sf9 cells using KKGEAIYAAPFA-NH2 as substrate at 100 uM incubated for 10 mins by scintillation counting method relative to control
[9] = target: T1, Leucine-rich repeat serine/threonine-protein kinase 2 (Homo sapiens, UniProt Q5S007, G2019S); assay: Mixed type inhibition of human recombinant GST-tagged LRRK2 G2019S mutant (970 residues) expressed in baculovirus expression system assessed as enzyme-substrate-inhibitor complex by Michaelis-Menten kinetics in presence of varying level of ATP
[10] = target: Dual specificity tyrosine-phosphorylation-regulated kinase 1A (Rattus norvegicus) (UniProt Q63470); assay: Inhibition of recombinant rat N-terminal GST-tagged DYRK1A (1 to 499 residues) expressed in Escherichia coli using KKISGRLSPIMTEQ-NH2 as substrate at 100 uM incubated for 10 mins by scintillation counting method relative to control
[11] = target: Leucine-rich repeat serine/threonine-protein kinase 2 (Homo sapiens) (UniProt Q5S007); assay: Inhibition of human recombinant N-terminal GST-tagged LRRK2 (968 residues) expressed in baculovirus infected sf9 cells using LRRKtide as substrate at 50 uM incubated for 10 mins by scintillation counting method in presence of [gamma33P]ATP
[12] = target: T1, Leucine-rich repeat serine/threonine-protein kinase 2; assay: Mixed type inhibition of human recombinant GST-tagged LRRK2 G2019S mutant (970 residues) expressed in baculovirus expression system assessed as enzyme-inhibitor complex by Michaelis-Menten kinetics in presence of varying level of ATP
[13] = target: Phosphatidylinositol 4-kinase beta (Homo sapiens) (UniProt Q9UBF8); assay: Inhibition of full length human recombinant N-terminal GST-His-tagged PI4KB expressed in sf9 cells using phosphatidyl inositol:phosphatidyl serine (1:3) substrate at 100 uM by ADP-Glo kinase assay relative to control
Chain of Phosphatidylinositol 4-kinase beta (Homo sapiens) (Q9UBF8 2-816 limits assumed): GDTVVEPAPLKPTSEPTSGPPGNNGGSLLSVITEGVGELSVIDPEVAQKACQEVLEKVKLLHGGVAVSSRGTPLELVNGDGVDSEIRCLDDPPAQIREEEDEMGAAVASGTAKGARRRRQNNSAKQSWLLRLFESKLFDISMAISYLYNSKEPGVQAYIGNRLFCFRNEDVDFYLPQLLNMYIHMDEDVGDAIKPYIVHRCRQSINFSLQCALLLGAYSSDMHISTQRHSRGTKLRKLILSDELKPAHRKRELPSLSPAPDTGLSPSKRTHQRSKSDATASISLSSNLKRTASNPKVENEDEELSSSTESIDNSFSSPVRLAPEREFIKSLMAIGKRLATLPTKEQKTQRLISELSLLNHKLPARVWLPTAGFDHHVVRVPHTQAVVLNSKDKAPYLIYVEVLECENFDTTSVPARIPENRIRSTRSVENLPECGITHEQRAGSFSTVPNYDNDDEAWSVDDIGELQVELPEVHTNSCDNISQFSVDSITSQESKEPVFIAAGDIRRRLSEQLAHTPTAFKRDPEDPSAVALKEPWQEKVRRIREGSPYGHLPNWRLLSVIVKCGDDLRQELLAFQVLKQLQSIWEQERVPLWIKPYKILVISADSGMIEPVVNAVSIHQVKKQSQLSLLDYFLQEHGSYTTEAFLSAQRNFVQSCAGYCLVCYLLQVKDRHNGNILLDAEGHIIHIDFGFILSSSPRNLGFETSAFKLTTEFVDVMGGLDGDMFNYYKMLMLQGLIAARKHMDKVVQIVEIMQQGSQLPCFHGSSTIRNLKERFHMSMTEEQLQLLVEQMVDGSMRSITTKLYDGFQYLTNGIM

[14] = tested on: Leucine-rich repeat serine/threonine-protein kinase 2 (Homo sapiens), Q5S007 [G2019S]; assay: Ratio of enzyme-substrate-inhibitor complex Ki to enzyme-inhibitor complex Ki for human recombinant GST-tagged LRRK2 G2019S mutant (970 residues) expressed in baculovirus expression system
[15] = tested on: Leucine-rich repeat serine/threonine-protein kinase 2 (Homo sapiens), Q5S007 [G2019S]; assay: Inhibition of human recombinant GST-tagged LRRK2 G2019S mutant (970 residues) expressed in baculovirus expression system using LRRKtide as substrate incubated for 10 mins by scintillation counting method in presence of [gamma33P]ATP
[16] = tested on: Leucine-rich repeat serine/threonine-protein kinase 2 (Homo sapiens), Q5S007 [G2019S]; assay: Inhibition of human recombinant GST-tagged LRRK2 G2019S mutant (970 residues) expressed in baculovirus expression system using LRRKtide as substrate at 50 uM incubated for 10 mins by scintillation counting method in presence of [gamma33P]ATP
[17] = target: Receptor-type tyrosine-protein kinase FLT3 (Homo sapiens) (UniProt P36888); assay: Inhibition of human recombinant N-terminal GST-His6-tagged FLT3 (R571-S993 residues) expressed in baculovirus infected sf9 cells using KVEKIGEGTYGVVYK as substrate at 100 uM incubated for 10 mins by scintillation counting method relative to control
Chain of Receptor-type tyrosine-protein kinase FLT3 (Homo sapiens) (P36888 whole entry, the tested form may be a part): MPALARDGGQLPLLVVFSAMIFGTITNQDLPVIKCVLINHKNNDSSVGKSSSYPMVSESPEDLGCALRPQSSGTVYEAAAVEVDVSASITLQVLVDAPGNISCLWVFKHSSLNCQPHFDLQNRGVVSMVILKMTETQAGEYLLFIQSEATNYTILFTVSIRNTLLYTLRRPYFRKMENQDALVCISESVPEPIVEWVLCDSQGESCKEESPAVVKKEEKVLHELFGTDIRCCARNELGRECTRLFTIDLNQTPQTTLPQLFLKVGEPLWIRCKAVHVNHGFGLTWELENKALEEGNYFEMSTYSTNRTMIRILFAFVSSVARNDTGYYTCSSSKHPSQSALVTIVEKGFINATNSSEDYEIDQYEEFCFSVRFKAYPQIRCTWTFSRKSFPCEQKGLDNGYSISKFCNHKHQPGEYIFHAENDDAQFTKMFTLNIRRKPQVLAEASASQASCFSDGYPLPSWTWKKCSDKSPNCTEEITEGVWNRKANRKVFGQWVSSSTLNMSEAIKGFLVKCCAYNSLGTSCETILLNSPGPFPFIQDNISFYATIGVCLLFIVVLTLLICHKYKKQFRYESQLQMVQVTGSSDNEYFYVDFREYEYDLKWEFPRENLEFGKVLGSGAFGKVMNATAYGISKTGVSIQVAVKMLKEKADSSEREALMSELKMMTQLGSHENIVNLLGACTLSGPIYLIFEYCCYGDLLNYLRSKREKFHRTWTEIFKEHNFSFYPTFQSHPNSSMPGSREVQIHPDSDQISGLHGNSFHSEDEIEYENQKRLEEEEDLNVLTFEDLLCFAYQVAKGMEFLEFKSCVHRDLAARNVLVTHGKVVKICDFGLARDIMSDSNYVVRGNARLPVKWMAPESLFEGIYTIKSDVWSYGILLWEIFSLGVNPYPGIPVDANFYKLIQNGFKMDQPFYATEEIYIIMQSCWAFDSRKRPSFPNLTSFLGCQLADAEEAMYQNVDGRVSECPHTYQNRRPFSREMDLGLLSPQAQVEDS

[18] = target: Focal adhesion kinase 1 (Homo sapiens) (UniProt Q05397); assay: Inhibition of human recombinant FAK expressed in baculovirus infected sf9 cells using KVEKIGEGTYGVVYK as substrate at 100 uM incubated for 10 mins by scintillation counting method relative to control
Chain of Focal adhesion kinase 1 (Homo sapiens) (Q05397 2-1052 limits assumed): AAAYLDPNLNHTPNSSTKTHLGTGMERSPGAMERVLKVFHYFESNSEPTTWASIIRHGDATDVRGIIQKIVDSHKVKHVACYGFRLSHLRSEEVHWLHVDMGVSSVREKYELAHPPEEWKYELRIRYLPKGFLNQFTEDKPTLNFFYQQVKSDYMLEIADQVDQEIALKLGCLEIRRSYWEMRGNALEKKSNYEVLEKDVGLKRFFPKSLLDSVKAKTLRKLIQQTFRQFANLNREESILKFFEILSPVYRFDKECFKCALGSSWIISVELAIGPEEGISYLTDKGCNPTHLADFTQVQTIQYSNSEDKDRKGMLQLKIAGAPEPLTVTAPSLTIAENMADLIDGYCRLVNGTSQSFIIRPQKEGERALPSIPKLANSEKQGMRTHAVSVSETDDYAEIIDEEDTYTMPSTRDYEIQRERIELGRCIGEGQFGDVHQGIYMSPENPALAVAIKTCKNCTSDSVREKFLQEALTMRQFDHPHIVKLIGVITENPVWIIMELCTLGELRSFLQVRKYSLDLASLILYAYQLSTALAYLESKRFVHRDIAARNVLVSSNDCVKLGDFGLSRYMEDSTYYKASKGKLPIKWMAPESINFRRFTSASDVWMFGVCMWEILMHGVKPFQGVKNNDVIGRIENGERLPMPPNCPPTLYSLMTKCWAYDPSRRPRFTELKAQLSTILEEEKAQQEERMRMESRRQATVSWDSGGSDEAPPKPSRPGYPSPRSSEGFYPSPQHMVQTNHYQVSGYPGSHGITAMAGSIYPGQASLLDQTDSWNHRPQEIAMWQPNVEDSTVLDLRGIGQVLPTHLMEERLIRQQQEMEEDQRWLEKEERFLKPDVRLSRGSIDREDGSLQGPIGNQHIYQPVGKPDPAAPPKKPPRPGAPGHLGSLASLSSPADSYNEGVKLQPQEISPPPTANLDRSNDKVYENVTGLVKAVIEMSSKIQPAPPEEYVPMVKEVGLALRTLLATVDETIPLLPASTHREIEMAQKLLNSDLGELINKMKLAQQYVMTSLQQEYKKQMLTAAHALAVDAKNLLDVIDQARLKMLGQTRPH

[19] = target: Tyrosine-protein kinase HCK (Homo sapiens) (UniProt P08631); assay: Inhibition of full length human recombinant N-terminal GST-His6-tagged HCK (M1 to P505 residues) expressed in baculovirus infected sf9 cells using KVEKIGEGTYGVVYK as substrate at 100 uM incubated for 10 mins by scintillation counting method relative to control
Chain of Tyrosine-protein kinase HCK (Homo sapiens) (P08631 2-526 limits assumed): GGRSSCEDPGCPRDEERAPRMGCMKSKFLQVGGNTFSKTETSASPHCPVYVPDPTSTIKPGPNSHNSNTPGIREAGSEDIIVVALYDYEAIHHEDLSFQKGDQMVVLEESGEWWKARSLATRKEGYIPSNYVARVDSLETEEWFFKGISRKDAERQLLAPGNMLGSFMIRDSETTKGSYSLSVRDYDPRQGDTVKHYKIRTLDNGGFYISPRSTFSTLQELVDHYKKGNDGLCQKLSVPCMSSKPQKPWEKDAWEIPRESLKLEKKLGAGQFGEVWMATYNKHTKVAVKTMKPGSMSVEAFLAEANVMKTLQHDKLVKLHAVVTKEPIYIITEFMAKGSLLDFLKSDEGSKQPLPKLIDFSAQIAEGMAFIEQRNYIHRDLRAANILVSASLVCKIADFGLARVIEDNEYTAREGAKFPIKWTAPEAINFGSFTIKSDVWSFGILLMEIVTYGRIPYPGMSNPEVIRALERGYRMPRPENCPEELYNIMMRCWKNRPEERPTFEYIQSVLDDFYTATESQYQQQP

[20] = target: CDK2/Cyclin A2 (Homo sapiens) (UniProt P24941+P20248); assay: Inhibition of full length human recombinant N-terminal GST-tagged CDK2 (M1-L298 residues)/Cyclin A2 (M1-L432 residues) expressed in baculovirus infected sf9 cells using histone H1 as substrate at 100 uM incubated for 10 mins by scintillation counting method relative to control
[21] = target: CDK9/cyclin T1 (Homo sapiens) (UniProt O60563+P50750); assay: Inhibition of full length human recombinant N-terminal GST-His6-tagged CDK9 (M1-F372 residues)/Cyclin T1 (M1-K726 residues) expressed in baculovirus infected sf9 cells using CDKtide as substrate at 100 uM incubated for 10 mins by scintillation counting method relative to control
[22] = target: CDK6/cyclin D1 (Homo sapiens) (UniProt P24385+Q00534); assay: Inhibition of full length human recombinant N-terminal His-tagged CDK6/N-terminal GST-tagged Cyclin D1 expressed in baculovirus infected sf9 cells using RB-CTF as substrate at 100 uM incubated for 10 mins by scintillation counting method relative to control
[23] = target: Leucine-rich repeat serine/threonine-protein kinase 2 (Homo sapiens) (UniProt Q5S007); assay: Inhibition of human recombinant N-terminal GST-tagged LRRK2 (968 residues) expressed in baculovirus infected sf9 cells using LRRKtide as substrate incubated for 10 mins by scintillation counting method in presence of [gamma33P]ATP
[24] = target: Glycogen synthase kinase-3 beta (Homo sapiens) (UniProt P49841); assay: Inhibition of full length human recombinant N-terminal GST-tagged GSK3beta expressed in baculovirus infected sf9 cells using GSK3 substrate at 100 uM incubated for 10 mins by scintillation counting method relative to control
Chain of Glycogen synthase kinase-3 beta (Homo sapiens) (P49841 whole entry, looked up): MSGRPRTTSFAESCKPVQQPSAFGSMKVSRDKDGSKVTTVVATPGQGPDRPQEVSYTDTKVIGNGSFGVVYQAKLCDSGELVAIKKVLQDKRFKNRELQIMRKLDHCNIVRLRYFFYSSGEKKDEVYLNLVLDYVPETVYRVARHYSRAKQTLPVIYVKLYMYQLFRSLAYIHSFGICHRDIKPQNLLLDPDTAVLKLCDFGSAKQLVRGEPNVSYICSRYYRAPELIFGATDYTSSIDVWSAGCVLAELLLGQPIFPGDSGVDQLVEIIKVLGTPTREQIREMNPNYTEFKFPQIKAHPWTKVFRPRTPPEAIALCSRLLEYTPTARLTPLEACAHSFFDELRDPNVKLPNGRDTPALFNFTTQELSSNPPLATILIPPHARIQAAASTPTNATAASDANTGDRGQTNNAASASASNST

[25] = target: T1, Leucine-rich repeat serine/threonine-protein kinase 2; assay: Competitive inhibition of human recombinant GST-tagged LRRK2 G2019S mutant (970 residues) expressed in baculovirus expression system assessed as enzyme-inhibitor complex by Michaelis-Menten kinetics in presence of varying level of ATP

SMILES	inhibition [1]	inhibition [2]	inhibition [3] [%]	inhibition [4] [%]	Selectivity ratio [5]	inhibition [6] [%]	inhibition [7] [%]	inhibition [8] [%]	Ki [9] [nM]	inhibition [10] [%]	inhibition [13] [%]	ID50 [15] [nM]	inhibition [17] [%]	inhibition [18] [%]	inhibition [19] [%]	inhibition [20] [%]	inhibition [21] [%]	inhibition [22] [%]	ID50 [23] [nM]	inhibition [24] [%]	also measured
COc1ccc(/C=N/Nc2ncccc2Cl)cc1OC	Active	Active																			
C/C(=N\Nc1ccc2ccccc2n1)c1ccccc1O			3	2	7.5	7	5	6	18400	9	0	4800	3	1	0	3	1	1	32600	1	inhibition [11]: Active; Ki [12]: 3450 nM; Ratio [14]: 5; inhibition [16]: Active
COc1ccc(/C=N/Nc2ccccn2)cc1	Active	Active																			
COc1ccc(/C=N/Nc2nc(C)cc(C)c2C#N)cc1	Active	Active																			
Cc1cc(N/N=C/c2ccc(OC(=O)c3ccc(N4CCN(C)CC4)cc3)cc2)nc2ccccc12	inactive	inactive																			
COc1ccc(/C=N/Nc2cc(C)c3ccccc3n2)cc1			20	53	4	9	31	43	1800	0	32	900	50	11	0	9	0	42	3000	0	inhibition [11]: Active; Ki [12]: 740 nM; inhibition [16]: Active
COc1ccc(/C=N/Nc2nc3c(c(-c4ccccc4)c2C#N)CCCC3)cc1	Active	Active																			
COc1ccc(-c2nnc3c(NCCN4CCOCC4)cccn23)cc1OC	Active	Active	29	38	3.5	10	40	19		26	3	9100	0	8	0	22	24	18	32000	14	Ki [25]: 5610 nM
Cc1cc(N/N=C/c2ccc(O)cc2)nc2ccccc12			43	24	2.4	16	21	24	2590	22	31	1300	62	13	0	12	0	40	2700	0	inhibition [11]: Active; Ki [12]: 550 nM; Ratio [14]: 5; inhibition [16]: Active
